Laboratory results reported in patent publication US20120077803A1, “Uses Of NK Receptor Antagonists” (NOVARTIS AG, priority 2009, published 2012).

Key:
[1] = tested on: dogs with flea allergic dermatitis; test: Pruritus intensity by Actical activity monitors in flea allergic dogs; format: in vivo, Beagle dogs; settings: Prednisolone 10 mg/day orally; for Actical day, mean (standard deviation): 6am-6pm; for Actical night, mean (standard deviation): 6pm-6am
Experimental: (§1) Flea-allergic laboratory Beagle dogs are infested with fleas. Fifty (50) Ctenocephalides felis fleas, 18 to 20 days old are released on the back of every dog on D1. Dogs are combed 48 hours (D3) after infestation to reduce the number of fleas (reduction of allergen charge).
Pruritus intensity: Pruritus intensity is evaluated using activity monitors (Actical™: Actiwatch™; Cambridge Neuorotechnology Ltd, Papworth Everard, UK) according to Nuttall and McEwan. (Nuttal T and McEwan N, “Objective measurement of pruritus in dogs: a preliminary study using activity monitors”. ESVD, 2006, 17 348-351). The physical activity monitors, mounted on collars, are placed around the dog's neck and tightened to the extent that they more with the skin but not so that they compress the underlying tissues. They were put on the dogs on D −5. […] This typically allows to see the difference in activity when the dogs have fleas and are developing pruritic and inflammatory lesions (i.e. dermatitis) and then again their activity during treatment with either the Test Compound or Prednisolone. The activity monitors are typically removed at the end of each phase on D12. Activity monitors measure the movement average within 15 seconds,
(§2) Skin lesions are allowed to develop until the total lesion score reaches ˜20. The Test Compound is then given orally at 50, 150 and 300 mg/day, divided into 2 doses, for 5 days. Prednisolone (10 mg/day, orally) is used as a comparator.
(§3) Lesion scores and Actical™ measurement values are typically observed on the following days: • Pre-value: before challenge with fleas • the day of challenge with fleas (Actical™ measurements only); • D1: the day when the total lesion score reached a sufficiently high value (average lesion score 20) and treatment of the animal started. • D2 to D6,
(§4) In the treatment group, lesion scores were taken from 8 dogs. Actical™ measurements were also taken from 6 of these dogs.

[2] = tested on: dogs with flea allergic dermatitis; test: Skin lesion scores (total lesion score) in dogs with flea-allergic dermatitis; format: in vivo, Beagle dogs; settings: Prednisolone 10 mg/day orally
Experimental: as §1
Skin observations: before flea infestations (D −1) all dogs are typically examined to establish a baseline score for erythema, papules, crusts, scales, alopecia, and excoriation. From D1, daily clinical observations are performed. Each lesion is typically graded using a scale from 0 to 3:
0=no signs 1=mild 2=moderate 3=severe
as §2
Erythema: is typically an acute clinical sign of cutaneous inflammation defined as redness of the skin caused by capillary congestion which can be aggravated by scratching. Excoriation: is typically a punctuate or linear abrasion produced by mechanical means, usually involving only the epidermis but not uncommonly reaching the papillary dermis. […] Papule: is typically a circumscribed, solid elevation with no visible fluid, varying in size from a pinhead to 1 cm. […], formed when there is a high break in the follicle wall. In the presence of bacteria, papules become pustules. Crusts: are typically dried serum, pus, or blood usually mixed with epithelial and sometimes bacterial debris. Scales: are dry or greasy laminated masses of keratin.
as §3, §4
• Erythema*, • Excoriations*, • Papules/pustules • Self induced alopecia^o, and • Scales, • Erythema and excoriations are related to pruritus • Self induced alopecia is also related to pruritus but the improvement is […] after several weeks of treatment.
Day 1 of treatment when dogs reached a sufficient lesion score to initiate treatment (average 20). Pre-values (baseline).

C[C@]12C=CC(=O)C=C1CC[C@@H]1[C@@H]2[C@@H](O)C[C@@]2(C)[C@H]1CC[C@]2(O)C(=O)CO [Prednisolone, reference compound]
Actical day, mean (standard deviation) ([1]; day 1 (treatment start)): 74 (20) Average activity counts every 15 secs | Actical day, mean (standard deviation) ([1]; day 2): 66 (50) Average activity counts every 15 secs | Actical day, mean (standard deviation) ([1]; day 3): 49 (33) Average activity counts every 15 secs | Actical day, mean (standard deviation) ([1]; day 4): 54 (22) Average activity counts every 15 secs | Actical day, mean (standard deviation) ([1]; day 5): 47 (24) Average activity counts every 15 secs | Actical day, mean (standard deviation) ([1]; day 6): 41 (14) Average activity counts every 15 secs | Actical day, mean (standard deviation) ([1]; fleas (day of challenge)): 74 (22) Average activity counts every 15 secs | Actical day, mean (standard deviation) ([1]; pre (before exposure to fleas)): 40 (10) Average activity counts every 15 secs | Actical night, mean (standard deviation) ([1]; Fleas (day of challenge)): 8.6 (3.5) Average activity counts every 15 secs | Actical night, mean (standard deviation) ([1]; Pre (before exposure to fleas)): 7.9 (4.4) Average activity counts every 15 secs | Actical night, mean (standard deviation) ([1]; day 1 (treatment start)): 16.2 (2.9) Average activity counts every 15 secs | Actical night, mean (standard deviation) ([1]; day 2): 6.8 (4.1) Average activity counts every 15 secs | Actical night, mean (standard deviation) ([1]; day 3): 5.1 (2.8) Average activity counts every 15 secs | Actical night, mean (standard deviation) ([1]; day 4): 7.3 (3.3) Average activity counts every 15 secs | Actical night, mean (standard deviation) ([1]; day 5): 4.8 (2.2) Average activity counts every 15 secs | Actical night, mean (standard deviation) ([1]; day 6): 5.3 (1.7) Average activity counts every 15 secs | Total score ctb (total lesion score compared to baseline), mean (standard deviation) ([2]; day 2): −5.6 (6.3) | Total score ctb (total lesion score compared to baseline), mean (standard deviation) ([2]; day 3): −7.9 (6.7) | Total score ctb (total lesion score compared to baseline), mean (standard deviation) ([2]; day 4): −9.2 (6.3) | Total score ctb (total lesion score compared to baseline), mean (standard deviation) ([2]; day 5): −9.9 (4.8) | Total score ctb (total lesion score compared to baseline), mean (standard deviation) ([2]; day 6): −11.8 (6.1)
